These results are taken from PMC10223997, “Screening and Elucidation of Chemical Structures of Novel Mammalian α-Glucosidase Inhibitors Targeting Anti-Diabetes Drug from Herbals Used by E De Ethnic Tribe in Vietnam” (Pharmaceuticals, 2023).

The subject of this assay is Rat α-Glucosidase. Briefly: Alpha-glucosidase inhibition assay (rat intestinal acetone powder, pNPG substrate). The conditions noted are these: for maximum inhibition / IC50: purified compounds and acarbose, Figure 2. The assay is classed as biochemical. The procedure:
• - Enzyme solution preparation: Enzyme solution was then sonicated 24 times, each for 12 s at 4 °C, and then centrifuged for 20 min at 10,000× g, 4 °C. The residue part was re-suspended twice with 15 mL of the same buffer (0.1 mol/L NPB, pH 7), as described above. All supernatants were mixed together and dialyzed for a half day at 4–6 °C to obtain the enzyme solution, which was then used for further analyses. • - Reaction and estimation of inhibitory activity: The enzyme inhibition assay was done according to Kwon et al. 2006 [40] with slight modification. The enzyme solution (50 µL) and the sample solution (50 µL) were mixed in 150 μL of 0.1 mol/L NPB, pH 7. This mixture was pre-incubated at 37 °C for 15 min. The reaction was started by adding 50 μL of the substrate pNPG (10 mmol/L) into this mixture solution, and this duration was kept at 37 °C for 30 min, then 325 μL of 1 mol/L Na2CO3 solution were added to terminate the reaction. This absorption of the final solution was measured at 410 nm (namely, E) using a UV spectrometer (UV-2550, Shimadzu, Japan) to estimate the enzymatic activity, and the control experiment was also conducted similarly, but instead of the inhibitor solution, 50 μL 0.1 mol/L potassium phosphate buffer (pH 7) and the absorbance was measured at 410 nm (namely, C). The inhibitory effect (%) was calculated using the equation below:
α-Glucosidase inhibition (%) = (C − E)/C × 100, where E denoted the optical density of the solution reaction in the presence of both α-glucosidase and the sample, and C is the optical density of the reaction blank.

In brackets after ≈: the same amount, converted by molar mass.

What is called IC50 is the concentration that gives 50% inhibition.

On to `C[C@H]1O[C@H](O[C@H]2[C@H](O)[C@@H](O)[C@@H](O[C@H]3[C@H](O)[C@@H](O)C(O)O[C@@H]3CO)O[C@@H]2CO)[C@H](O)[C@@H](O)[C@@H]1N[C@H]1C=C(CO)[C@@H](O)[C@H](O)[C@H]1O` (stereo partly drawn) [AC, acarbose, reference compound], for which the maximum inhibition is 84–85%. For the same compound, the “Inhibition of Rat α-Glucosidase %” value (MeOH extracts of medicinal plants and acarbose, Table 1) is 92%. In addition, the “Inhibition of Rat α-Glucosidase IC50” value (MeOH extracts of medicinal plants and acarbose, listed as Acarbose) was found to be 310 µg/mL. Also, under “MeOH extracts of medicinal plants and acarbose, listed as acarbose”, the “Inhibition of Rat α-Glucosidase IC50” value turned out to be 309 µg/mL.

Regarding `Oc1cc(O)c2c(c1)O[C@H](c1ccc(O)c(O)c1)[C@H](O)C2` [ECC, (−)-epicatechin], the maximum inhibition was 84–85%.

Regarding `C[C@@H]1O[C@@H](Oc2cc3c(=O)oc4c(O)c(O)cc5c(=O)oc(c2O)c3c45)[C@H](O)[C@H](O)[C@H]1O` [EWC, eschweilenol C], the IC50 turned out to be 191 µg/mL (≈ 0.426 mM) and the maximum inhibition worked out at 93%.

`O=C(O)c1cc(O)c(O)c(O)c1` [GA, gallic acid] yielded an IC50 of 973 µg/mL (≈ 5.72 mM) and a maximum inhibition of 80%.
